Results reported in ChEMBL document CHEMBL1201862, “PubChem BioAssay data set” (2004).
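These data come from cells grown in 96-well plates and exposed to compound for 48 hours at five concentrations. GI50 = concentration required for 50% inhibition of growth.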 The source made the active and inactive calls. No stated cut-off is given here; in the data, active = GI50 up to about 1.1 µM and inactive = higher.

Key:
Assay in all cases: NCI-60 cell line screen, 48 h
[1] = system: K562
[2] = system: NCI-H522
[3] = system: OVCAR-3
[4] = system: MDA-MB-231
[5] = system: ACHN
[6] = system: NCI-H226
[7] = system: MCF7
[8] = system: UO-31
[9] = system: OVCAR-8
[10] = system: BT-549
[11] = system: OVCAR-4
[12] = system: HCT-116
[13] = system: T47D
[14] = system: M14
[15] = system: SF-295
[16] = system: MDA-MB-435
[17] = system: RXF 393
[18] = system: MDA-N
[19] = system: UACC-257
[20] = system: SW-620
[21] = system: EKVX
[22] = system: A498
[23] = system: CAKI-1
[24] = system: SF-539
[25] = system: CCRF-CEM
[26] = system: MOLT-4
[27] = system: HOP-92
[28] = system: OVCAR-5
[29] = system: NCI-H460
[30] = system: DU-145
[31] = system: LOX IMVI
[32] = system: NCI-H23
[33] = system: HCC 2998
[34] = system: RPMI-8226
[35] = system: SF-268
[36] = system: SNB-75
[37] = system: IGROV-1
[38] = system: HCT-15
[39] = system: HOP-62
[40] = system: SK-MEL-5
[41] = system: UACC-62
[42] = system: PC-3
[43] = system: TK-10
[44] = system: SK-MEL-2
[45] = system: SK-OV-3
[46] = system: NCI/ADR-RES
[47] = system: SNB-19
[48] = system: COLO 205
[49] = system: SN12C
[50] = system: U-251
[51] = system: Hs-578T
[52] = system: KM12
[53] = system: SK-MEL-28
[54] = system: A549
[55] = system: 786-0
[56] = system: HT-29
[57] = system: Malme-3M
[58] = system: HL-60

Cc1cccc(C)c1NC(=S)NC=C(C(N)=O)C(N)=O
GI50 [1]: > 100 µM (inactive) | GI50 [2]: > 100 µM (inactive) | GI50 [3]: > 100 µM (inactive) | GI50 [4]: > 100 µM (inactive) | GI50 [5]: > 100 µM (inactive) | GI50 [6]: > 100 µM (inactive) | GI50 [7]: > 100 µM (inactive) | GI50 [8]: > 100 µM (inactive) | GI50 [9]: > 100 µM (inactive) | GI50 [10]: > 100 µM (inactive) | GI50 [11]: > 100 µM (inactive) | GI50 [12]: > 100 µM (inactive) | GI50 [13]: > 100 µM (inactive) | GI50 [14]: > 100 µM (inactive) | GI50 [15]: > 100 µM (inactive) | GI50 [16]: > 100 µM (inactive) | GI50 [17]: > 100 µM (inactive) | GI50 [18]: > 100 µM (inactive) | GI50 [19]: > 100 µM (inactive) | GI50 [20]: > 100 µM (inactive) | GI50 [21]: > 100 µM (inactive) | GI50 [22]: > 100 µM (inactive) | GI50 [23]: > 100 µM (inactive) | GI50 [24]: > 100 µM (inactive) | GI50 [25]: > 100 µM (inactive) | GI50 [26]: > 100 µM (inactive) | GI50 [27]: > 100 µM (inactive) | GI50 [28]: > 100 µM (inactive) | GI50 [29]: > 100 µM (inactive) | GI50 [30]: > 100 µM (inactive) | GI50 [31]: > 100 µM (inactive) | GI50 [32]: > 100 µM (inactive) | GI50 [33]: > 100 µM (inactive) | GI50 [34]: > 100 µM (inactive) | GI50 [35]: > 100 µM (inactive) | GI50 [36]: > 100 µM (inactive) | GI50 [37]: > 100 µM (inactive) | GI50 [38]: > 100 µM | GI50 [39]: > 100 µM (inactive) | GI50 [40]: > 100 µM (inactive) | GI50 [41]: > 100 µM (inactive) | GI50 [42]: > 100 µM (inactive) | GI50 [43]: > 100 µM (inactive) | GI50 [44]: > 100 µM (inactive) | GI50 [45]: > 100 µM (inactive) | GI50 [46]: > 100 µM (inactive) | GI50 [47]: > 100 µM (inactive) | GI50 [48]: > 100 µM (inactive) | GI50 [49]: > 100 µM (inactive) | GI50 [50]: > 100 µM (inactive) | GI50 [51]: > 100 µM (inactive) | GI50 [52]: > 100 µM (inactive) | GI50 [53]: > 100 µM (inactive) | GI50 [54]: > 100 µM (inactive) | GI50 [55]: > 100 µM (inactive) | GI50 [56]: > 100 µM (inactive)

CC(=O)OC/C=C(\C)CCC(Br)C(C)(C)Br (stereo not drawn)
GI50 [1]: > 10 µM (inactive) | GI50 [2]: > 10 µM (inactive) | GI50 [3]: > 10 µM (inactive) | GI50 [4]: > 10 µM (inactive) | GI50 [5]: > 10 µM (inactive) | GI50 [6]: > 10 µM (inactive) | GI50 [7]: > 10 µM (inactive) | GI50 [8]: 0.001 µM (active) | GI50 [9]: > 10 µM (inactive) | GI50 [10]: > 10 µM (inactive) | GI50 [11]: > 10 µM (inactive) | GI50 [57]: > 10 µM (inactive) | GI50 [12]: > 10 µM (inactive) | GI50 [13]: > 10 µM (inactive) | GI50 [14]: > 10 µM (inactive) | GI50 [15]: > 10 µM (inactive) | GI50 [16]: > 10 µM (inactive) | GI50 [17]: > 10 µM (inactive) | GI50 [18]: > 10 µM (inactive) | GI50 [19]: > 10 µM (inactive) | GI50 [20]: > 10 µM (inactive) | GI50 [21]: > 10 µM (inactive) | GI50 [22]: > 10 µM (inactive) | GI50 [23]: > 10 µM (inactive) | GI50 [24]: > 10 µM (inactive) | GI50 [25]: > 10 µM (inactive) | GI50 [26]: > 10 µM (inactive) | GI50 [28]: > 10 µM (inactive) | GI50 [29]: > 10 µM (inactive) | GI50 [30]: > 10 µM (inactive) | GI50 [31]: > 10 µM (inactive) | GI50 [32]: > 10 µM (inactive) | GI50 [33]: > 10 µM (inactive) | GI50 [34]: > 10 µM (inactive) | GI50 [35]: > 10 µM (inactive) | GI50 [36]: > 10 µM (inactive) | GI50 [37]: > 10 µM (inactive) | GI50 [38]: > 10 µM | GI50 [39]: > 10 µM (inactive) | GI50 [40]: > 10 µM (inactive) | GI50 [58]: > 10 µM (inactive) | GI50 [41]: > 10 µM (inactive) | GI50 [42]: > 10 µM (inactive) | GI50 [43]: > 10 µM (inactive) | GI50 [44]: > 10 µM (inactive) | GI50 [45]: > 10 µM (inactive) | GI50 [46]: > 10 µM (inactive) | GI50 [47]: > 10 µM (inactive) | GI50 [48]: > 10 µM (inactive) | GI50 [49]: > 10 µM (inactive) | GI50 [50]: > 10 µM (inactive) | GI50 [51]: > 10 µM (inactive) | GI50 [52]: > 10 µM (inactive) | GI50 [53]: > 10 µM (inactive) | GI50 [54]: > 10 µM (inactive) | GI50 [55]: > 10 µM (inactive) | GI50 [56]: > 10 µM (inactive)

CCOC(=O)CCCNC(=O)CCCCC(=O)N(C)C
GI50 [1]: > 100 µM (inactive) | GI50 [2]: > 100 µM (inactive) | GI50 [3]: > 100 µM (inactive) | GI50 [4]: > 100 µM (inactive) | GI50 [5]: > 100 µM (inactive) | GI50 [6]: > 100 µM (inactive) | GI50 [7]: > 100 µM (inactive) | GI50 [8]: > 100 µM (inactive) | GI50 [9]: > 100 µM (inactive) | GI50 [10]: > 100 µM (inactive) | GI50 [57]: > 100 µM (inactive) | GI50 [12]: > 100 µM (inactive) | GI50 [13]: > 100 µM (inactive) | GI50 [14]: > 100 µM (inactive) | GI50 [15]: > 100 µM (inactive) | GI50 [16]: > 100 µM (inactive) | GI50 [18]: > 100 µM (inactive) | GI50 [19]: > 100 µM (inactive) | GI50 [20]: > 100 µM (inactive) | GI50 [21]: > 100 µM (inactive) | GI50 [22]: > 100 µM (inactive) | GI50 [23]: > 100 µM (inactive) | GI50 [24]: > 100 µM (inactive) | GI50 [25]: > 100 µM (inactive) | GI50 [26]: > 100 µM (inactive) | GI50 [27]: > 100 µM (inactive) | GI50 [28]: > 100 µM (inactive) | GI50 [29]: > 100 µM (inactive) | GI50 [30]: > 100 µM (inactive) | GI50 [31]: > 100 µM (inactive) | GI50 [32]: > 100 µM (inactive) | GI50 [33]: > 100 µM (inactive) | GI50 [34]: > 100 µM (inactive) | GI50 [35]: > 100 µM (inactive) | GI50 [37]: > 100 µM (inactive) | GI50 [38]: > 100 µM | GI50 [39]: > 100 µM (inactive) | GI50 [40]: > 100 µM (inactive) | GI50 [58]: > 100 µM (inactive) | GI50 [41]: > 100 µM (inactive) | GI50 [42]: > 100 µM (inactive) | GI50 [43]: > 100 µM (inactive) | GI50 [44]: > 100 µM (inactive) | GI50 [45]: > 100 µM (inactive) | GI50 [46]: > 100 µM (inactive) | GI50 [47]: > 100 µM (inactive) | GI50 [48]: > 100 µM (inactive) | GI50 [49]: > 100 µM (inactive) | GI50 [50]: > 100 µM (inactive) | GI50 [51]: > 100 µM (inactive) | GI50 [52]: > 100 µM (inactive) | GI50 [53]: > 100 µM (inactive) | GI50 [54]: > 100 µM (inactive) | GI50 [55]: > 100 µM (inactive) | GI50 [56]: > 100 µM (inactive)
